Measurements: patent US10499642B2, “Isoxazoline-substituted benzamides and analogues as insecticides” (SYNGENTA PARTICIPATIONS AG, priority 2015, dated 2019)
Where two headings read alike, the source gives them in different places.

Experiments:
Format in all cases: in vivo
Spodoptera littoralis = Spodoptera littoralis (Egyptian cotton leaf worm) cotton leaf disc test; details: foliar, 72 h, read-out: control (at least one of mortality, anti-feedant effect, and growth inhibition)
How it was run: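 Five first-instar larvae per disc were placed on dried, sprayed cotton leaf discs held on agar. Test solutions were aqueous, made from 10′000 ppm DMSO stocks. At day 3, control was counted when mortality, feeding deterrence or growth inhibition exceeded the untreated discs.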

Plutella xylostella = Plutella xylostella (diamond back moth) artificial diet test; details: 120 h, read-out: effect in at least one of the two categories (mortality or growth inhibition)
How it was run: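 At a 200 ppm rate, test solutions were applied to artificial diet and allowed to dry before second-instar larvae were added. Five days later, larval mortality and growth inhibition were rated against untreated samples.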

Diabrotica Balteata = experiment: Diabrotica balteata (corn root worm) maize sprout test; details: 96 h, read-out: effect in at least one of the two categories (mortality or growth inhibition)
How it was run: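 Scoring covered both mortality and growth inhibition relative to untreated controls, 4 days post-infestation. Test solutions at 200 ppm, diluted in water from 10′000 ppm DMSO stocks, were sprayed onto agar-held maize sprouts, which after drying received 6 to 10 L2 larvae each well.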

Thrips tabaci = Thrips tabaci (onion thrips) sunflower leaf disc test; details: foliar, 144 h
Experimental: Thrips tabaci (Onion Thrips):
Sunflower leaf discs were placed on agar in 24-well microtiter plates and sprayed with aqueous test solutions prepared from 10′000 ppm DMSO stock solutions. After drying the leaf discs were infested with a thrips population of mixed ages. The samples were assessed for mortality 6 days after infestation.

Tetranychus urticae = Tetranychus urticae (two-spotted spider mite) bean leaf disc test; details: foliar, 192 h
Experimental: Tetranychus urticae (Two-Spotted Spider Mite):
Bean leaf discs on agar in 24-well microtiter plates were sprayed with aqueous test solutions prepared from 10′000 ppm DMSO stock solutions. After drying the leaf discs were infested with a mite population of mixed ages. The samples were assessed for mortality on mixed population (mobile stages) 8 days after infestation.

Myzus persicae = Myzus persicae (green peach aphid) sunflower leaf disc test; details: foliar, 144 h
Experimental: Myzus persicae (Green Peach Aphid):
Sunflower leaf discs were placed on agar in a 24-well microtiter plate and sprayed with test solutions at an application rate of 200 ppm. After drying, the leaf discs were infested with an aphid population of mixed ages. After an incubation period of 6 days after treatment, samples were checked for mortality. The following compounds gave at least 80% mortality of Myzus persicae: […]

CC1=NOC(NC(=O)c2ccc(C3=NO[C@@](c4cc(Cl)c(Cl)c(Cl)c4)(C(F)(F)F)C3)cc2Cl)C1 (stereo partly drawn) [Compound A025, 2-chloro-N-(3-methyl-4,5-dihydroisoxazol-5-yl)-4-[(5S)-5-(3,4,5-trichlorophenyl)-5-(trifluoromethyl)-4H-isoxazol-3-yl]benzamide]
≥ 80%: percent control (mortality, anti-feedant effect or growth inhibition) at 200 ppm (Spodoptera littoralis) | percent effect (mortality or growth inhibition) at 200 ppm (Plutella xylostella) | percent effect (mortality or growth inhibition) at 200 ppm (Diabrotica Balteata) | mortality at 200 ppm (Thrips tabaci) | mortality at 200 ppm (Tetranychus urticae) | mortality at 200 ppm (Myzus persicae)

COC1=NOC(NC(=O)c2ccc(C3=NO[C@@](c4cc(Cl)c(F)c(Cl)c4)(C(F)(F)F)C3)cc2Cl)C1 (stereo partly drawn) [Compound A045]
≥ 80%: percent control (mortality, anti-feedant effect or growth inhibition) at 200 ppm (Spodoptera littoralis) | percent effect (mortality or growth inhibition) at 200 ppm (Plutella xylostella) | percent effect (mortality or growth inhibition) at 200 ppm (Diabrotica Balteata) | mortality at 200 ppm (Thrips tabaci) | mortality at 200 ppm (Tetranychus urticae) | mortality at 200 ppm (Myzus persicae)

Cc1cc(C2=NO[C@@](c3cc(Cl)c(F)c(Cl)c3)(C(F)(F)F)C2)ccc1C(=O)NC1CC(OCC[Si](C)(C)C)=NO1 (stereo partly drawn) [Compound A109]
≥ 80%: percent control (mortality, anti-feedant effect or growth inhibition) at 200 ppm (Spodoptera littoralis) | percent effect (mortality or growth inhibition) at 200 ppm (Plutella xylostella) | percent effect (mortality or growth inhibition) at 200 ppm (Diabrotica Balteata) | mortality at 200 ppm (Thrips tabaci) | mortality at 200 ppm (Tetranychus urticae) | mortality at 200 ppm (Myzus persicae)

Cc1cc(C2=NO[C@@](c3cc(Cl)c(Cl)c(Cl)c3)(C(F)(F)F)C2)ccc1C(=O)NC1CC(OCC2CCC2)=NO1 (stereo partly drawn) [Compound A111, N-[3-(cyclobutylmethoxy)-4,5-dihydroisoxazol-5-yl]-2-methyl-4-[(5S)-5-(3,4,5-trichlorophenyl)-5-(trifluoromethyl)-4H-isoxazol-3-yl]benzamide]
≥ 80%: percent control (mortality, anti-feedant effect or growth inhibition) at 200 ppm (Spodoptera littoralis) | percent effect (mortality or growth inhibition) at 200 ppm (Plutella xylostella) | percent effect (mortality or growth inhibition) at 200 ppm (Diabrotica Balteata) | mortality at 200 ppm (Thrips tabaci) | mortality at 200 ppm (Tetranychus urticae) | mortality at 200 ppm (Myzus persicae)

Cc1cc(C2=NO[C@@](c3cc(Cl)c(Cl)c(Cl)c3)(C(F)(F)F)C2)ccc1C(=O)NC1CC(OCc2ccncc2)=NO1 (stereo partly drawn) [Compound A124, 2-methyl-N-[3-(4-pyridylmethoxy)-4,5-dihydroisoxazol-5-yl]-4-[(5S)-5-(3,4,5-trichlorophenyl)-5-(trifluoromethyl)-4H-isoxazol-3-yl]benzamide]
≥ 80%: percent control (mortality, anti-feedant effect or growth inhibition) at 200 ppm (Spodoptera littoralis) | percent effect (mortality or growth inhibition) at 200 ppm (Plutella xylostella) | percent effect (mortality or growth inhibition) at 200 ppm (Diabrotica Balteata) | mortality at 200 ppm (Thrips tabaci) | mortality at 200 ppm (Tetranychus urticae) | mortality at 200 ppm (Myzus persicae)

CC1=NOC(N(C=O)C(=O)c2ccc(C3=NO[C@@](c4cc(Br)cc(C(F)(F)F)c4)(C(F)(F)F)C3)cc2C)C1 (stereo partly drawn) [Compound A040, 4-[(5S)-5-[3-bromo-5-(trifluoromethyl)phenyl]-5-(trifluoromethyl)-4H-isoxazol-3-yl]-N-formyl-2-methyl-N-(3-methyl-4,5-dihydroisoxazol-5-yl)benzamide]
≥ 80%: percent control (mortality, anti-feedant effect or growth inhibition) at 200 ppm (Spodoptera littoralis; application rate 200 ppm, cotton leaf discs, L1 larvae, 3 days after infestation) | percent effect (mortality or growth inhibition) at 200 ppm (Plutella xylostella; application rate 200 ppm, artificial diet, L2 larvae, 5 days after infestation) | percent effect (mortality or growth inhibition) at 200 ppm (Diabrotica Balteata; application rate 200 ppm, maize sprouts, L2 larvae, 4 days after infestation) | mortality at 200 ppm (Thrips tabaci; application rate 200 ppm, sunflower leaf discs, population of mixed ages, 6 days after infestation, read-out: mortality) | mortality at 200 ppm (Tetranychus urticae; application rate 200 ppm, bean leaf discs, mixed population (mobile stages), 8 days after infestation, read-out: mortality) | mortality at 200 ppm (Myzus persicae; application rate 200 ppm, sunflower leaf discs, population of mixed ages, 6 days after treatment, read-out: mortality)

Cc1cc(C2=NO[C@@](c3cc(Cl)c(F)c(Cl)c3)(C(F)(F)F)C2)ccc1C(=O)N(C=O)C1CC(Br)=NO1 (stereo partly drawn) [Compound A002, N-(3-bromo-4,5-dihydroisoxazol-5-yl)-4-[(5S)-5-(3,5-dichloro-4-fluoro-phenyl)-5-(trifluoromethyl)-4H-isoxazol-3-yl]-N-formyl-2-methyl-benzamide]
≥ 80%: percent control (mortality, anti-feedant effect or growth inhibition) at 200 ppm (Spodoptera littoralis) | percent effect (mortality or growth inhibition) at 200 ppm (Plutella xylostella) | percent effect (mortality or growth inhibition) at 200 ppm (Diabrotica Balteata) | mortality at 200 ppm (Thrips tabaci) | mortality at 200 ppm (Tetranychus urticae) | mortality at 200 ppm (Myzus persicae)

CC1=NOC(N(C=O)C(=O)c2ccc(C3=NO[C@@](c4cc(Cl)c(F)c(Cl)c4)(C(F)(F)F)C3)cc2Cl)C1 (stereo partly drawn) [Compound A033, 2-chloro-4-[(5S)-5-(3,5-dichloro-4-fluoro-phenyl)-5-(trifluoromethyl)-4H-isoxazol-3-yl]-N-formyl-N-(3-methyl-4,5-dihydroisoxazol-5-yl)benzamide]
≥ 80%: percent control (mortality, anti-feedant effect or growth inhibition) at 200 ppm (Spodoptera littoralis) | percent effect (mortality or growth inhibition) at 200 ppm (Plutella xylostella) | percent effect (mortality or growth inhibition) at 200 ppm (Diabrotica Balteata) | mortality at 200 ppm (Thrips tabaci) | mortality at 200 ppm (Tetranychus urticae) | mortality at 200 ppm (Myzus persicae)

CCOC1=NOC(N(C(=O)OC(C)(C)C)C(=O)c2ccc(C3=NO[C@@](c4cc(Cl)c(F)c(Cl)c4)(C(F)(F)F)C3)cc2C)C1 (stereo partly drawn) [Compound A132, tert-butyl N-[4-[(5S)-5-(3,5-dichloro-4-fluoro-phenyl)-5-(trifluoromethyl)-4H-isoxazol-3-yl]-2-methyl-benzoyl]-N-(3-ethoxy-4,5-dihydroisoxazol-5-yl)carbamate]
≥ 80%: percent control (mortality, anti-feedant effect or growth inhibition) at 200 ppm (Spodoptera littoralis) | percent effect (mortality or growth inhibition) at 200 ppm (Plutella xylostella) | percent effect (mortality or growth inhibition) at 200 ppm (Diabrotica Balteata) | mortality at 200 ppm (Thrips tabaci) | mortality at 200 ppm (Tetranychus urticae) | mortality at 200 ppm (Myzus persicae)

Cc1cc(C2=NO[C@@](c3cc(Cl)c(F)c(Cl)c3)(C(F)(F)F)C2)ccc1C(=O)NC1CC(COC=O)=NO1 (stereo partly drawn) [Compound A089]
≥ 80%: percent control (mortality, anti-feedant effect or growth inhibition) at 200 ppm (Spodoptera littoralis) | percent effect (mortality or growth inhibition) at 200 ppm (Plutella xylostella) | percent effect (mortality or growth inhibition) at 200 ppm (Diabrotica Balteata) | mortality at 200 ppm (Thrips tabaci) | mortality at 200 ppm (Tetranychus urticae) | mortality at 200 ppm (Myzus persicae)

Cc1cc(C2=NO[C@@](c3cc(Cl)c(F)c(Cl)c3)(C(F)(F)F)C2)ccc1C(=O)NC1CC(OCC(F)(F)F)=NO1 (stereo partly drawn) [Compound A103]
≥ 80%: percent control (mortality, anti-feedant effect or growth inhibition) at 200 ppm (Spodoptera littoralis) | percent effect (mortality or growth inhibition) at 200 ppm (Plutella xylostella) | percent effect (mortality or growth inhibition) at 200 ppm (Diabrotica Balteata) | mortality at 200 ppm (Thrips tabaci) | mortality at 200 ppm (Tetranychus urticae) | mortality at 200 ppm (Myzus persicae)

CCC1=NOC(NC(=O)c2ccc(C3=NO[C@@](c4cc(Cl)cc(Cl)c4)(C(F)(F)F)C3)cc2C)C1 (stereo partly drawn) [Compound A137]
≥ 80%: percent control (mortality, anti-feedant effect or growth inhibition) at 200 ppm (Spodoptera littoralis) | percent effect (mortality or growth inhibition) at 200 ppm (Plutella xylostella) | percent effect (mortality or growth inhibition) at 200 ppm (Diabrotica Balteata) | mortality at 200 ppm (Thrips tabaci) | mortality at 200 ppm (Tetranychus urticae) | mortality at 200 ppm (Myzus persicae)
